Laboratory results from PubChem BioAssay (NCI).
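Test compounds were applied to cells in 96-well plates for 48 hours at 5 doses. GI50 is the concentration that inhibits growth by half. At the TGI there is no net growth.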

Columns and labels:
Assay in all cases: NCI anticancer screen, dose series, 48 h
[1] = test system: LOX IMVI melanoma
[2] = test system: SK-MEL-5 melanoma
[3] = test system: BT-549 breast
[4] = test system: NCI-H522 lung
[5] = test system: RPMI-8226 leukemia
[6] = test system: MOLT-4 leukemia
[7] = test system: HT29 colon
[8] = test system: SK-MEL-28 melanoma
[9] = test system: SW-620 colon
[10] = test system: OVCAR-3 ovarian
[11] = test system: M14 melanoma
[12] = test system: K-562 leukemia
[13] = test system: MDA-MB-231 breast
[14] = test system: SF-539 CNS
[15] = test system: ACHN renal
[16] = test system: UACC-62 melanoma
[17] = test system: DU-145 prostate
[18] = test system: HS 578T breast
[19] = test system: OVCAR-5 ovarian
[20] = test system: UO-31 renal
[21] = test system: UACC-257 melanoma
[22] = test system: HOP-92 NSCLC
[23] = test system: OVCAR-8 ovarian
[24] = test system: NCI-H460 lung
[25] = test system: COLO 205 colon
[26] = test system: CCRF-CEM leukemia
[27] = test system: A498 renal
[28] = test system: EKVX NSCLC
[29] = test system: HCC-2998 colon
[30] = test system: MALME-3M melanoma
[31] = test system: SK-OV-3 ovarian
[32] = test system: 786-0 renal
[33] = test system: HCT-15 colon
[34] = test system: RXF 393 renal
[35] = test system: NCI-H23 lung
[36] = test system: SNB-19 CNS
[37] = test system: TK-10 renal
[38] = test system: CAKI-1 renal
[39] = test system: PC-3 prostate
[40] = test system: SF-295 CNS
[41] = test system: MCF7 breast
[42] = test system: IGROV1 ovarian
[43] = test system: OVCAR-4 ovarian
[44] = test system: SN12C renal
[45] = test system: NCI-H226 lung
[46] = test system: HCT-116 colon
[47] = test system: A549 NSCLC
[48] = test system: T-47D breast
[49] = test system: SNB-75 CNS
[50] = test system: MDA-MB-435
[51] = test system: NCI/ADR-RES ovarian
[52] = test system: KM12 colon
[53] = test system: U251 CNS
[54] = test system: SK-MEL-2 melanoma
[55] = test system: HOP-62 NSCLC
[56] = test system: SF-268 CNS

COc1cc2c3c(n(CCCN(C)CCO)c(=O)c2cc1OC)-c1cc2c(cc1C3=O)OCO2
GI50 [1]: 0.709 µM | TGI [1]: 13.9 µM | GI50 [2]: 4.77 µM | TGI [2]: 33.5 µM | GI50 [3]: 3.13 µM | TGI [3]: > 22.3 µM | GI50 [4]: 2.16 µM | TGI [4]: > 46 µM | GI50 [5]: 1.45 µM | TGI [5]: 8.94 µM | GI50 [6]: < 0.013 µM | GI50 [7]: 9.06 µM | TGI [7]: > 75.2 µM | GI50 [8]: > 80.2 µM | TGI [8]: > 100 µM | GI50 [9]: 0.879 µM | TGI [9]: > 55.2 µM | GI50 [10]: 35.9 µM | TGI [10]: > 100 µM | GI50 [11]: 1.48 µM | TGI [11]: > 68.9 µM | GI50 [12]: 0.439 µM | TGI [12]: 54.7 µM | GI50 [13]: 14 µM | TGI [13]: 49.9 µM | GI50 [14]: 2.89 µM | TGI [14]: > 33.5 µM | GI50 [15]: 0.277 µM | TGI [15]: 4.33 µM | GI50 [16]: 1.54 µM | TGI [16]: 24.7 µM | GI50 [17]: 0.816 µM | TGI [17]: > 100 µM | GI50 [18]: > 61.3 µM | TGI [18]: > 100 µM | GI50 [19]: 51.7 µM | TGI [19]: > 100 µM | GI50 [20]: 3.41 µM | TGI [20]: > 57.9 µM | GI50 [21]: > 62.6 µM | TGI [21]: > 100 µM | GI50 [22]: 2.82 µM | TGI [22]: 35.1 µM | GI50 [23]: 13.9 µM | TGI [23]: > 78.8 µM | GI50 [24]: 1.89 µM | TGI [24]: > 100 µM | GI50 [25]: 12.6 µM | TGI [25]: > 100 µM | TGI [26]: 0.473 µM | GI50 [27]: 8.19 µM | TGI [27]: > 40.2 µM | GI50 [28]: > 44.4 µM | TGI [28]: > 100 µM | GI50 [29]: 7.05 µM | TGI [29]: > 52.1 µM | GI50 [30]: > 55.7 µM | TGI [30]: > 100 µM | GI50 [31]: 11 µM | TGI [31]: > 100 µM | GI50 [32]: 2.92 µM | TGI [32]: > 100 µM | GI50 [33]: 6.79 µM | TGI [33]: > 100 µM | GI50 [34]: 27.4 µM | TGI [34]: > 73.2 µM | GI50 [35]: 0.839 µM | TGI [35]: > 24.6 µM | GI50 [36]: 8.32 µM | TGI [36]: > 100 µM | GI50 [37]: 81.7 µM | TGI [37]: > 100 µM | GI50 [38]: 0.936 µM | TGI [38]: > 100 µM | GI50 [39]: 8.47 µM | TGI [39]: > 62.6 µM | GI50 [40]: 0.672 µM | TGI [40]: > 100 µM | GI50 [41]: > 28.3 µM | TGI [41]: > 100 µM | GI50 [42]: 2.47 µM | TGI [42]: > 55.6 µM | GI50 [43]: 30.9 µM | TGI [43]: > 72.4 µM | GI50 [44]: 2.75 µM | TGI [44]: > 100 µM | GI50 [45]: 1.7 µM | TGI [45]: 26.5 µM | GI50 [46]: 1.9 µM | TGI [46]: 30.7 µM | GI50 [47]: 9.49 µM | TGI [47]: > 100 µM | GI50 [48]: 10.8 µM | TGI [48]: > 100 µM | TGI [49]: > 58.5 µM | GI50 [50]: 16.6 µM | TGI [50]: > 100 µM | GI50 [51]: 3.21 µM | TGI [51]: 31.5 µM | GI50 [52]: 11.4 µM | TGI [52]: 45.7 µM | GI50 [53]: 0.814 µM | TGI [53]: > 100 µM | GI50 [54]: > 100 µM | TGI [54]: > 100 µM | GI50 [55]: 1.17 µM | TGI [55]: > 100 µM | GI50 [56]: > 22.1 µM | TGI [56]: > 100 µM
